From patent US20120045764A1, “METHOD OF EXPANDING HUMAN HEPATOCYTES IN VIVO” (priority 2009, published 2012)
Values joined by “and” are separate entries in the source; they are usually repeats but may differ in a detail not shown here. Identical values can stand only once. “Also recorded” adds a separate entry of the source.

Key:
[1] = tested on: FRG mice; assay: Maintenance of FRG mice on NTBC in drinking water and NTBC withdrawal; assay type: in vivo, mouse
Procedure: To generate an immunodeficient Fah^−/− mouse strain completely lacking T cells, B cells and NK cells, but without a DNA repair defect, Fah^−/−/Rag2^−/−/Il2rg^−/− (FRG) mice were generated. Male Fah^−/−129S4 mice (Grompe et al. Genes Dev. 7:2298-2307, 1993) were crossed with female Rag2^−/−/Il2rg^−/− mice (Taconic). All animals were maintained with drinking water containing 2-(2-nitro-4-trifluoro-methyl-benzoyl)-1,3 cyclohexanedione (NTBC) at a concentration of 1.6 mg/L (Grompe et al. Nat. Genet. 10:453-460, 1995). To confirm the genotypes of each animal, PCR-based genotyping was carried out on 200 ng genomic DNA isolated from toe tissue (Grompe et al. Genes Dev. 7:2298-2307, 1993; Traggiai et al. Science 304:104-107, 2004).

[2] = tested on: CYP3A4; assay: Induction of CYP3A4 mRNA in hepatocytes from humanized mice (real-time PCR); details: relative to non-induced cultures; FIG. 7B
Description: (§1) The basal expression and induction of human liver specific genes in chimeric mice was examined. […] Primers, obtained from Applied Biosystems, were specific for human CYP1A1 (Hs00153120_m1), CYP1A2 (Hs00167927_m1), CYP3A4 (Hs00430021_m1), CYP3A7 (Hs00426361_a1), CYP2B6 (Hs00167937_g1), CYP2D6 (Hs00164385_a1), Multidrug resistance associated protein MRP2 (Hs00166123_m1), Bile Salt export Pump BSEP, (Hs00184829_m1), CAR (Hs00231959_m1) Albumin (Hs00609411_m1), HNF4α (Hs00230853_m1), Cyclophillin (Hs99999904_m1) and mouse actin (Ma00607939_s1).

[3] = tested on: CYP3A4; assay: Conversion of testosterone to 6-beta-hydroxyltestosterone in cultured hepatocytes from humanized mice; details: cultured hepatocytes from repopulated FRG livers
Description: as §1
Cultures of isolated hepatocytes were established and exposed to prototypical inducers of the cytochrome P450 genes. […] In addition to the mRNA expression levels of human drug metabolism genes, the enzymatic activity of the human CYP1A and 3A family members were measured. Ethoxyresorufin-O-deethylase activity (EROD) is known to be mediated by CYP1A1 and 1A2 in human liver.

[4] = tested on: FRG mice; assay: Liver repopulation of FRG mice treated with anakinra (blood human albumin by ELISA); assay type: in vivo, mouse; details: for blood level of human albumin, Elisa #1: Experiment #3, serial transplantation
Procedure: Small amounts of blood were collected once a week from the left saphenous vein with a heparinized blood capillary. After 1,000 or 10,000× dilution with Tris-buffered saline, human albumin concentration was measured with the Human Albumin ELISA Quantitation Kit (Bethyl) according to the manufacturer's protocol.
One million human hepatocytes from the same batch were injected intrasplenically into six FRG mice. In three mice, anakinra (2 mg) was administered intraperitoneally during surgery and then once daily for six additional doses (total dose=14 mg over 7 days). One month after transplantation, blood human albumin was measured by ELISA. […] All three anakinra-treated mice had much higher albumin levels (130, 165 and 200 μg/ml).
Additional experiments validated these initial observations. […] Cohorts of genetically identical mice were injected with the same batch of human cells and were either untreated (Con) or treated with anakinra (Ana). Different dosing regimens of anakinra were used and different lengths of administration were tested. High dose anakinra (Hi) was 2 mg/mouse/day and low dose (lo) was 0.4 mg/mouse/day. The drug was injected daily for either 3 days (×3) or 7 days (×7). Blood levels of human albumin were measured by ELISA to ascertain the degree of human repopulation.

[5] = tested on: human drug metabolism genes; assay: Induction of mRNAs of drug metabolism genes in cultured hepatocytes from humanized mice (real-time PCR); assay type: cell-based; details: cultured hepatocytes from chimeric mice, mRNA
Procedure: (§2) Cultures of isolated hepatocytes were established and exposed to prototypical inducers of the cytochrome P450 genes. […]. In addition to the mRNA expression levels of human drug metabolism genes, the enzymatic activity of the human CYP1A and 3A family members were measured. Ethoxyresorufin-O-deethylase activity (EROD) is known to be mediated by CYP1A1 and 1A2 in human liver. […] Thus, hepatocytes from repopulated FRG livers were indistinguishable from normal human adult hepatocytes in these standard drug metabolism assays.

[6] = tested on: CYP1A1 and 1A2; assay: Ethoxyresorufin-O-deethylase (EROD) activity in cultured hepatocytes from humanized mice; assay type: cell-based, human; details: humanized mouse liver cells in culture
Procedure: as §2

Q: `O=C1CCCC(=O)C1C(=O)c1ccc(C(F)(F)F)cc1[N+](=O)[O-]` [NTBC, 2-(2-nitro-4-trifluoro-methyl-benzoyl)-1,3 cyclohexanedione] was tested. Which “death after NTBC withdrawal” value ([1]; FRG mice, gradual hepatocellular injury after withdrawal) did it give?
A: 4-8 weeks

Q: What about the “growth and fertility of FRG mice” value ([1]; NTBC continuously in drinking water, 1.6 mg/L) of the same molecule?
A: grew well and were fully fertile

Q: `CCC1(c2ccccc2)C(=O)NC(=O)NC1=O` [PB, phenobarbital] was tested. Which “induction of CYP3A4 mRNA” value [2] did it give?
A: even more striking than at the enzyme level

Q: What about the “conversion of testosterone to 6-beta-hydroxyltestosterone after prior exposure to inducer” value [3] of the same molecule?
A: specifically induced

Q: “anakinra: recombinant, non-glycosylated version of human IL-1RA (IL-1 receptor antagonist), 153 amino acids, SEQ ID NO: 21” was tested. Which “blood level of human albumin, Elisa #2” value ([4]; Experiment #1, primary transplantation, high dose (2 mg/mouse/day) x7) did it give?
A: 5.6 mg and 4.8 mg

Q: What about the “blood level of human albumin, Elisa #1” value ([4]; Hi (2 mg/mouse/day) x3) of the same molecule?
A: 52 μg-Hi x3 and 60 μg-Hi x3

Q: And the “blood level of human albumin, Elisa #1” value ([4]; Hi (2 mg/mouse/day) x7)?
A: 38 μg-Hi x7 and 56 μg-Hi x7

Q: What about the blood human albumin ([4]; FRG mice, one million human hepatocytes intrasplenically, anakinra 2 mg i.p. during surgery then once daily for six doses (total 14 mg over 7 days), one month after transplantation) of the same molecule?
A: 130 µg/mL and 165 µg/mL and 200 µg/mL

Q: And the “hepatocyte repopulation (in words)” value ([4]; anakinra-treated versus untreated FRG mice)?
A: remarkably enhanced; also recorded: consistently had much higher levels of repopulation

Q: And the “enhanced repopulation versus untreated mice” value ([4]; on average, three independent tests of Table 6)?
A: approximately 100 fold

Q: What about the “percentage of highly humanized FRG mice after transplantation of human hepatocytes” value ([4]; with anakinra treatment versus without) of the same molecule?
A: significantly higher

Q: `O=c1cc(-c2ccccc2)oc2ccc3ccccc3c12` [BNF, beta-naphthoflavone] was tested. Which “pattern of genes induced” value [5] did it give?
A: as expected from normal human cells

Q: And the “EROD activity after prior exposure to inducer” value [6]?
A: specifically and robustly induced
